Key:
[1] = target: T1, Serine/threonine-protein kinase TAO2 (Homo sapiens) (UniProt Q9UL54); test: Selectivity interaction (KinomeScan (DiscoverX)) EUB0000229b TAOK2; conditions: at 10 µM
T1 sequence (whole entry): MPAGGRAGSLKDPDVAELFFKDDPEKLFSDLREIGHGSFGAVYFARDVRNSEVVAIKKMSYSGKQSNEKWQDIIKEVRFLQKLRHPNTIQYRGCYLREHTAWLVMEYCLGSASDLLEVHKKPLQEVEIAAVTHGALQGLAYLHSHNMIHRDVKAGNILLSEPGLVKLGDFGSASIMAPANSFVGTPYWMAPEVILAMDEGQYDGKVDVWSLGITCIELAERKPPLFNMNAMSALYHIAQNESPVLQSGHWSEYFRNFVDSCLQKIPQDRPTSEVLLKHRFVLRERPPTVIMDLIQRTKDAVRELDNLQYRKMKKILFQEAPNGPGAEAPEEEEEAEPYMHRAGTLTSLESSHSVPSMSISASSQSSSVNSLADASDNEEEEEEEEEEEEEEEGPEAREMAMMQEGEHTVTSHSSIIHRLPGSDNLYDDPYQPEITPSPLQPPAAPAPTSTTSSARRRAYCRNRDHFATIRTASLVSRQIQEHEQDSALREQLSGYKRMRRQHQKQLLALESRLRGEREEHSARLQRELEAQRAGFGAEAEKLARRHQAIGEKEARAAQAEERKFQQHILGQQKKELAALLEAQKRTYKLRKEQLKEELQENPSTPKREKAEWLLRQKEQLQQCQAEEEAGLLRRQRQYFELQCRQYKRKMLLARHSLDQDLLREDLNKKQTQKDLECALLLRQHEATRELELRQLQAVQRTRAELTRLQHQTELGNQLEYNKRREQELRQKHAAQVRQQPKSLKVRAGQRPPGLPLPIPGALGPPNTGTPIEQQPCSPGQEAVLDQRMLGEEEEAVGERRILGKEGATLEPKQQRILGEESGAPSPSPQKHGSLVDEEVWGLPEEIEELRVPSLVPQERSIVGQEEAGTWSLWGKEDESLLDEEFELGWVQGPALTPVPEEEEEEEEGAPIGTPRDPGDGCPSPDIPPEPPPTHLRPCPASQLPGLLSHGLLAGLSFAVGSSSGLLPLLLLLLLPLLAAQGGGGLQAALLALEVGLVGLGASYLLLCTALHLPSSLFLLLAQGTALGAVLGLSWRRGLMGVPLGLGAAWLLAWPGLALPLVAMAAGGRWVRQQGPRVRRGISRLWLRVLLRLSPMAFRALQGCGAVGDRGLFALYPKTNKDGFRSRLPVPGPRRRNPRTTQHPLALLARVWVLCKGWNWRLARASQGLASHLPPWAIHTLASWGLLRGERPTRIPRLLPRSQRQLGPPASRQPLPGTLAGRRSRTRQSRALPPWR

[2] = test system: Epidermal growth factor receptor (Homo sapiens), P00533 [UNDEFINED MUTATION]; test: Selectivity interaction (KinomeScan (DiscoverX)) EUB0001079a EGFR; conditions: at 1 µM
Chain of Epidermal growth factor receptor (Homo sapiens), P00533 [UNDEFINED MUTATION] (P00533 whole entry, looked up, change not shown): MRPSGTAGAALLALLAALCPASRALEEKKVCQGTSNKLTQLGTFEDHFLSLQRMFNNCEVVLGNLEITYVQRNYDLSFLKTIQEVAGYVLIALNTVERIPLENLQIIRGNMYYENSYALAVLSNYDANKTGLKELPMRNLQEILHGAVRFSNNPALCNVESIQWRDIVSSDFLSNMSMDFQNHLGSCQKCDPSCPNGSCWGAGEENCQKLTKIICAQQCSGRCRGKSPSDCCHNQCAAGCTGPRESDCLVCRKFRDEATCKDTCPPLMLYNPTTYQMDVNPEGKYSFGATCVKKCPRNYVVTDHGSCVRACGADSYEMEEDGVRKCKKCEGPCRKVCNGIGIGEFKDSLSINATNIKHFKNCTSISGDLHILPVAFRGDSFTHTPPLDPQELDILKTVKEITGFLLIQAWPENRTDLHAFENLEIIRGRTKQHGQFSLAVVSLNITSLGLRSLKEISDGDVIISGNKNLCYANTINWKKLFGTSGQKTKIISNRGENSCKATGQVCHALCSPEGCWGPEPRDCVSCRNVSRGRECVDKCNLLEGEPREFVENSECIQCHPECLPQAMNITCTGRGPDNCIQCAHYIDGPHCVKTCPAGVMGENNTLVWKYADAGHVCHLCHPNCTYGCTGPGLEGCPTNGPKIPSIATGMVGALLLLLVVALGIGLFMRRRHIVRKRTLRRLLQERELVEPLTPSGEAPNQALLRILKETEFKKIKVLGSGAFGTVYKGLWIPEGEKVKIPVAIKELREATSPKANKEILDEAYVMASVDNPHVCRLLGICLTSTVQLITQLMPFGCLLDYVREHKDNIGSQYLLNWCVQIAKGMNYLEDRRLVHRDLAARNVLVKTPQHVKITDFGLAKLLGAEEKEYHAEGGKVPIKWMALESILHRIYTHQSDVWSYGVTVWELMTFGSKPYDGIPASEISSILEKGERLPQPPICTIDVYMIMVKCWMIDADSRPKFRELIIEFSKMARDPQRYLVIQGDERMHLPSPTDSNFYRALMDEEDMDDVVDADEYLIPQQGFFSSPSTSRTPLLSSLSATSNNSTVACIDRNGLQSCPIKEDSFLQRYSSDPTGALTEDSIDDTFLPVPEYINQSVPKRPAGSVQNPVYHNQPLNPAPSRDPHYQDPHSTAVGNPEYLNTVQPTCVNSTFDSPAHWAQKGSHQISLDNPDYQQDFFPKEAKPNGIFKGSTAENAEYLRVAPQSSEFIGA

[3] = target: T2, Interleukin-1 receptor-associated kinase 4 (Homo sapiens) (UniProt Q9NWZ3); test: Selectivity interaction (Kinase panel (KiNativ target engagement assay in Jurkat cells)) EUB0001635a IRAK4; format: cell-based; conditions: Selectivity number of off-targets 0.0, Selectivity number of targets 233.0, Source Knowledge https://www.sciencedirect.com/science/article/pii/S2451945619300674?via%3Dihub, at 1 µM
T2 sequence (whole entry): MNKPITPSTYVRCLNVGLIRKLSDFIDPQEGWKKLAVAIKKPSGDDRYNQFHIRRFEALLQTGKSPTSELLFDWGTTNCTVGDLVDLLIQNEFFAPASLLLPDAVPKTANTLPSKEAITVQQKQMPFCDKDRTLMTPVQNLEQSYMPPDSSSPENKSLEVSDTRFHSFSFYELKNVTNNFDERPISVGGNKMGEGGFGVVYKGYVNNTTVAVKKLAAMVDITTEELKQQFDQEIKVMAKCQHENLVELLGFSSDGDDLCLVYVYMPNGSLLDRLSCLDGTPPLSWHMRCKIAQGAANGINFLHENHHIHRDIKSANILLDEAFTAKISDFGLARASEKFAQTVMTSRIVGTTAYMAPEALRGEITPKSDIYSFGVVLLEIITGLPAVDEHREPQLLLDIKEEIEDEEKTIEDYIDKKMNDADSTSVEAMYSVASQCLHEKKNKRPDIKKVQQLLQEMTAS

[4] = target: Insulin-like growth factor 1 receptor (Homo sapiens, UniProt P08069); test: Selectivity interaction (Kinase panel (33PanQinase(R) Activity Assay)) EUB0000877a IGF1R
Chain of Insulin-like growth factor 1 receptor (P08069 31-736 limits assumed): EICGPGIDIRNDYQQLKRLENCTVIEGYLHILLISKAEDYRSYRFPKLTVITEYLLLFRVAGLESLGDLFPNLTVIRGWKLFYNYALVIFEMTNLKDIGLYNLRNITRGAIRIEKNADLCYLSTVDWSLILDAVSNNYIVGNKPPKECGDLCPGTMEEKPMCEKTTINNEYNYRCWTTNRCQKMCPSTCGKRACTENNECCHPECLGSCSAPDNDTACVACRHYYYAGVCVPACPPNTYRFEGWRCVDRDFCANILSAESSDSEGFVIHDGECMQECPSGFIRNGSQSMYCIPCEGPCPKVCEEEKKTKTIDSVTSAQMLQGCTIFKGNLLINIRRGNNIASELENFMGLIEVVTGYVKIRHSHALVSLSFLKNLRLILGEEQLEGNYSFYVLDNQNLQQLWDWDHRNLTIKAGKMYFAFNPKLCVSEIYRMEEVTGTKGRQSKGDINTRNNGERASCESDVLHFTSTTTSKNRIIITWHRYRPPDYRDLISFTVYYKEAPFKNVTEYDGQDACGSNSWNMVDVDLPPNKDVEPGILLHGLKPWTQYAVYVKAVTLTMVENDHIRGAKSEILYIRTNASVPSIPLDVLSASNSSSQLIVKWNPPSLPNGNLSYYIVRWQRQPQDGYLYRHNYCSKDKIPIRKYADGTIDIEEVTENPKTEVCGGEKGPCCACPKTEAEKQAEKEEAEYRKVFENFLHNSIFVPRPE
Chain of Insulin-like growth factor 1 receptor (P08069 741-1367 limits assumed): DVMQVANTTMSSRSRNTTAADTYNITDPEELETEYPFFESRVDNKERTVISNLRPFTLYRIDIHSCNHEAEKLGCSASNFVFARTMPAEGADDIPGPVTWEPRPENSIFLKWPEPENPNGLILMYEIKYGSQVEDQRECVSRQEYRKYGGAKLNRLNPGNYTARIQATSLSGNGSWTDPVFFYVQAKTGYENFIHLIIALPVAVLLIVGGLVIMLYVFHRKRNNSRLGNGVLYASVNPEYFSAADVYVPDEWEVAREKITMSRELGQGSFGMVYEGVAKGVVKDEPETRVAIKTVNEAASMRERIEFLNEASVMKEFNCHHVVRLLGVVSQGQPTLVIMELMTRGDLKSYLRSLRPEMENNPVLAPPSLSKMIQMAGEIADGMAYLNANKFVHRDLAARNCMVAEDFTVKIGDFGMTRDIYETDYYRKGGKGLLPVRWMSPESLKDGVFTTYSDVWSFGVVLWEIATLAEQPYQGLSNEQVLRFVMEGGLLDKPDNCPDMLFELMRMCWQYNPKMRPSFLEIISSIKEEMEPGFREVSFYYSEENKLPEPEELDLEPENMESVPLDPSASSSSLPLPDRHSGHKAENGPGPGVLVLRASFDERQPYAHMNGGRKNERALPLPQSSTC

[5] = target: Mitogen-activated protein kinase 14 (Homo sapiens, UniProt Q16539)
Chain of Mitogen-activated protein kinase 14 (Q16539 whole entry): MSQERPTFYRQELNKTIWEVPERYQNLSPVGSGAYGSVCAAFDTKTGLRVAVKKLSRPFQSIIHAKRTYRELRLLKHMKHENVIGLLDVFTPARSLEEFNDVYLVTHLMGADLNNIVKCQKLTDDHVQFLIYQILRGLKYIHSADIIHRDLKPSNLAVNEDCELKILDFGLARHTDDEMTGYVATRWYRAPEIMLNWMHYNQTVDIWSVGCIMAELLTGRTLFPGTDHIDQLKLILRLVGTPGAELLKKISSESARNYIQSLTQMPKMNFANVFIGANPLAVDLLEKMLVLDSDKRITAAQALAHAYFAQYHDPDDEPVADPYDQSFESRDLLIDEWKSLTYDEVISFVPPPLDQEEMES

[6] = target: T3, Mitogen-activated protein kinase kinase kinase 3 (Homo sapiens) (UniProt Q99759); test: Selectivity interaction (Kinase panel (Invitrogen)) EUB0000639a MAP3K3; conditions: at 200 nM
T3 sequence (whole entry): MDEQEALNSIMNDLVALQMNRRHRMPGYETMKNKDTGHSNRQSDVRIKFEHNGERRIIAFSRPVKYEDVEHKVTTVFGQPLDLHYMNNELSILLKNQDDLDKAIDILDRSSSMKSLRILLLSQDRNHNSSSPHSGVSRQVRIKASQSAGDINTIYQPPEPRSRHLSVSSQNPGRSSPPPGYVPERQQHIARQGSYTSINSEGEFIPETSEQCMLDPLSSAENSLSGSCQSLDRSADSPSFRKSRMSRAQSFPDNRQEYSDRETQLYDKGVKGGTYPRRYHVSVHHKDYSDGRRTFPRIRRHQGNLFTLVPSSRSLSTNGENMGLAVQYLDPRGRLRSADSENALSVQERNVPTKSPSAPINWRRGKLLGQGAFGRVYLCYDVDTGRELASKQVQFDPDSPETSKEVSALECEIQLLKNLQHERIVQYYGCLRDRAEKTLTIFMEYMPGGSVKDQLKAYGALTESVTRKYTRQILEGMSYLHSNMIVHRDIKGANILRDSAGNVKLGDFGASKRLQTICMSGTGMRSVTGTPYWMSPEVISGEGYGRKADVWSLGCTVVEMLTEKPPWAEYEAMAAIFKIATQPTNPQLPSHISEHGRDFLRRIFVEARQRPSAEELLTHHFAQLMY

[7] = target: G protein-coupled receptor kinase 4 (Homo sapiens) (UniProt P32298); test: Selectivity interaction (KinomeScan (DiscoverX)) EUB0001049a GRK4; conditions: at 1 µM
Chain of G protein-coupled receptor kinase 4 (Homo sapiens) (P32298 whole entry, looked up): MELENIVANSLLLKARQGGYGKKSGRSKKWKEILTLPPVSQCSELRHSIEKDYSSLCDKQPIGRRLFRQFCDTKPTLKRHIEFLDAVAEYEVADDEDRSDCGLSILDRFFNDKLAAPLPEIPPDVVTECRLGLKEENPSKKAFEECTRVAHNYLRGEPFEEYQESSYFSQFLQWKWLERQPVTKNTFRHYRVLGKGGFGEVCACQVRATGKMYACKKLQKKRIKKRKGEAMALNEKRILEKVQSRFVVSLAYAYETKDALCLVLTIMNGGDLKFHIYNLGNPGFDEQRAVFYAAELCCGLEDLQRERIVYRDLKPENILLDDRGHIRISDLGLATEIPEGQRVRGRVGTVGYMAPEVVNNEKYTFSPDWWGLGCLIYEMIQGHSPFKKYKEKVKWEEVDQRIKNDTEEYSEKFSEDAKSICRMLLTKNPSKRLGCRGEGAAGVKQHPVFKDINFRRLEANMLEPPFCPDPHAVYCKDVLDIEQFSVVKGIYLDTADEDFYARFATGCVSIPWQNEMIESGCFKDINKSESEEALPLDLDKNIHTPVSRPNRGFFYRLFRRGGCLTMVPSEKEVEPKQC

[8] = target: P2X purinoceptor 1 (Homo sapiens) (UniProt P51575); test: Selectivity interaction (Eurofins CEREP Diversity Profile (receptors and ion channels)) EUB0000279b P2RX1; conditions: at 10 µM
Chain of P2X purinoceptor 1 (Homo sapiens) (P51575 whole entry): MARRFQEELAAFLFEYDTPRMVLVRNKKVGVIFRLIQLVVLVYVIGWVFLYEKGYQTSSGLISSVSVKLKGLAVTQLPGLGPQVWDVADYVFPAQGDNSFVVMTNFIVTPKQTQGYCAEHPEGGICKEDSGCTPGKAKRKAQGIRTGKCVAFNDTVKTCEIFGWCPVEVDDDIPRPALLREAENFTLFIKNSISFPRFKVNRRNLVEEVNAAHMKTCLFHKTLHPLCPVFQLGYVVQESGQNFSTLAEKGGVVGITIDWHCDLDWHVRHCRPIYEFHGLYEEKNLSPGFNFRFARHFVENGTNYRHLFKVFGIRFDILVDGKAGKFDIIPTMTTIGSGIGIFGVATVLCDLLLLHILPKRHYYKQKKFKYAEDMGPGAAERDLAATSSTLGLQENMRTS

[9] = target: Cannabinoid receptor 1 (Homo sapiens, UniProt P21554); test: Selectivity interaction (Eurofins CEREP Diversity Profile (receptors and ion channels)) EUB0000279b CNR1; conditions: at 10 µM
Chain of Cannabinoid receptor 1 (P21554 whole entry): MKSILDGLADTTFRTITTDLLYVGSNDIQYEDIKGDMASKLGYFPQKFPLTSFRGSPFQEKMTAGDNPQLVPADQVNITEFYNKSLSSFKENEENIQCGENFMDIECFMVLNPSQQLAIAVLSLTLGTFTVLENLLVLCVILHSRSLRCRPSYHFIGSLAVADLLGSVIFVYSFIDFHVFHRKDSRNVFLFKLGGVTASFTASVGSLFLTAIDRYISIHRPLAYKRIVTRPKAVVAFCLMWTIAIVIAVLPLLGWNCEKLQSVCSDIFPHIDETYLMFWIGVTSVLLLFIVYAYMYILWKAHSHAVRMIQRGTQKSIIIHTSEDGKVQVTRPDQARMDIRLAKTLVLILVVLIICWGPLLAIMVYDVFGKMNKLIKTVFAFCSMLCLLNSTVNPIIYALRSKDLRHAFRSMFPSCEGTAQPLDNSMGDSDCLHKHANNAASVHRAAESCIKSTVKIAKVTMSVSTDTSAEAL

`COc1cc(N(C)c2ccnc3ccc(C(F)(F)F)cc23)cc(OC)c1OC` was tested, and the % binding [1] was 80%.

In the case of `Nc1cnc(N2CCc3cc(S(=O)(=O)Nc4c(F)cc(Cl)cc4F)cc(N4CCCC4=O)c32)nc1` [TP-020n], the % of control [2] is reported as 71%.

In the case of `C=CC(=O)Nc1ccc(C(=O)Nc2[nH]nc3c2CN(C(=O)N[C@H](CN(C)C)c2ccccc2)C3(C)C)cc1`, the % of engagement [3] is reported as 0.4%.

`CCC(=O)N1CC[C@H](Nc2ncnc3c2CN(c2cnc(OC)c(C(F)(F)F)c2)CC3)C1` [LENIOLISIB] was tested, and the IC50 [4] was > 10 µM.

With `CCc1cccc(CC)c1NC(=O)c1nn(C)c2c1CCc1cnc(Nc3ccc(C(=O)NC4CCN(C)CC4)cc3OC(F)(F)F)nc1-2` the IC50 [5] was > 10 µM.

With `CC[C@@H]1[C@H](F)C(=O)N[C@@H]1COc1nccc2cc(C(N)=O)c(OC)cc12` [ZIMLOVISERTIB] the % of inhibition [6] was -5.54%.

`COc1cc(Nc2nc(C)cc(-c3cnn4nc(OC)ccc34)n2)cc(C(F)(F)F)c1` gave a % of control [7] of 85%.

Work on `CC(=O)c1cc(-c2ccccc2OCC2CC2)c2ncccn12` yielded a % of control [8] of 89% and a % of control [9] of 116%.
